1 compound from patent US20070270418A1, “Inhibitors of P38 and Methods of Using the Same” (priority 2003, published 2007) can be followed below.

Holding throughout (experiment): Broad selectivity panel, 32P incorporation
What all share (format): biochemical

The target of one experiment is T1, CDK2/cyclinA (Homo sapiens, UniProt P24941).
T1 construct: purchased Upstate (Charlottesville, Va.)
Particulars: 40 μM ATP, read-out: Percent inhibition CDK2/cyclinA. In a few lines: (§1)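 Compounds tested at 0.1 μM and 1 μM against a 24-kinase panel, with reactions run at 40 μM ATP. 32P incorporation into each kinase's substrate was measured with and without compound. Values are percent decrease in incorporated 32P relative to buffer control.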

Another experiment deals with T2, CaMKIV (Homo sapiens, UniProt Q16566).
T2 construct: purchased Upstate (Charlottesville, Va.)
T2 sequence (Q16566 1-473): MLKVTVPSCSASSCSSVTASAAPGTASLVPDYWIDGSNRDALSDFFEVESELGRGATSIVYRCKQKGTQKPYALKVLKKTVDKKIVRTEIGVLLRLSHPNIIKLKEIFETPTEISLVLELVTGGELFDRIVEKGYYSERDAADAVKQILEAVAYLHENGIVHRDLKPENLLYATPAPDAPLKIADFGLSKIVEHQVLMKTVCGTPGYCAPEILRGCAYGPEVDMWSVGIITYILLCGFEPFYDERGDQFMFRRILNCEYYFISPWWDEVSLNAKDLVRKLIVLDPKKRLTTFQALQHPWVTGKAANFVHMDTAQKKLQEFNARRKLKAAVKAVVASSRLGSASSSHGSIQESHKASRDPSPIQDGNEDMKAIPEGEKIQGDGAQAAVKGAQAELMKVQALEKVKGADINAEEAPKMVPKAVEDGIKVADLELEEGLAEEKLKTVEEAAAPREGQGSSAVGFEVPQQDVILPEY
Conditions: 40 μM ATP, read-out: Percent inhibition CaMKIV. Summed up: as §1

For another experiment, the target named is T3, FGFR3 (Homo sapiens, UniProt P22607).
T3 construct: purchased Upstate (Charlottesville, Va.)
Conditions: 40 μM ATP, read-out: Percent inhibition FGFR3. In a few lines: as §1

The target in a further experiment is T4, JNK3-His (Homo sapiens, UniProt P53779).
T4 construct: His; purchased Upstate (Charlottesville, Va.)
Conditions: 40 μM ATP, read-out: Percent inhibition JNK3-His. Summed up: as §1

The target in the next experiment is T5, MAPK1 (Homo sapiens, UniProt P27361).
T5 construct: purchased Upstate (Charlottesville, Va.)
Particulars: 40 μM ATP, read-out: Percent inhibition MAPK1. In a few lines: as §1

The next experiment deals with T6, MEK1 (Homo sapiens, UniProt Q02750).
T6 construct: purchased Upstate (Charlottesville, Va.)
Particulars: 40 μM ATP, read-out: Percent inhibition MEK1. In a few lines: as §1

A further experiment addresses T7, MKK6 (Homo sapiens, UniProt P52564).
T7 construct: purchased Upstate (Charlottesville, Va.)
T7 sequence (P52564 1-334): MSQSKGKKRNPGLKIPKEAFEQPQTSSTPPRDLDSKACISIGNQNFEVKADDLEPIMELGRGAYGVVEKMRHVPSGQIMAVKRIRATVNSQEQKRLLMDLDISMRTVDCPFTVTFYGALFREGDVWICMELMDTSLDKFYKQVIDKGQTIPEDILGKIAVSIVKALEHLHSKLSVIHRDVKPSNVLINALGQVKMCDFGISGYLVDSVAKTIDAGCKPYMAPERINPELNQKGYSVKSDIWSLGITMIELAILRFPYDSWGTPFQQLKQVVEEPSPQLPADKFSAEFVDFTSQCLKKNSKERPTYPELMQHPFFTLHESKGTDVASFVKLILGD
Particulars: 40 μM ATP, read-out: Percent inhibition MKK6. Summed up: as §1

For a further experiment, the target named is T8, PKA (Homo sapiens, UniProt P17612).
T8 construct: purchased Upstate (Charlottesville, Va.)
Particulars: 40 μM ATP, read-out: Percent inhibition PKA. In a few lines: as §1

For another experiment, the target named is T9, PKB α (Homo sapiens, UniProt P31749).
T9 construct: purchased Upstate (Charlottesville, Va.)
Conditions: 40 μM ATP, read-out: Percent inhibition PKB α. In a few lines: as §1

For a further experiment, the target named is T10, SAPK4 (Homo sapiens, UniProt O15264).
T10 construct: purchased Upstate (Charlottesville, Va.)
T10 sequence (O15264 1-365): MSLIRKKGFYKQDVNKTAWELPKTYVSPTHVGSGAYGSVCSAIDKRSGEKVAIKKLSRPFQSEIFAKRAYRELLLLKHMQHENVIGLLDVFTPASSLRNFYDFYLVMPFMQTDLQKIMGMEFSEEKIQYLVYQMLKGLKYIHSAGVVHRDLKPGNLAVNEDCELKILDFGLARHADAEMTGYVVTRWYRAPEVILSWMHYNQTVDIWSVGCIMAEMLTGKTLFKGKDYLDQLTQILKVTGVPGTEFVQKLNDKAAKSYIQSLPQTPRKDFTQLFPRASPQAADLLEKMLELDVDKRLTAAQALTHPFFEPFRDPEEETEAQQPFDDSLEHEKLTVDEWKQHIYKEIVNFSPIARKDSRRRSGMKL
Conditions: 40 μM ATP, read-out: Percent inhibition SAPK4. In a few lines: as §1

T6 sequence (Q02750 whole entry, species assumed): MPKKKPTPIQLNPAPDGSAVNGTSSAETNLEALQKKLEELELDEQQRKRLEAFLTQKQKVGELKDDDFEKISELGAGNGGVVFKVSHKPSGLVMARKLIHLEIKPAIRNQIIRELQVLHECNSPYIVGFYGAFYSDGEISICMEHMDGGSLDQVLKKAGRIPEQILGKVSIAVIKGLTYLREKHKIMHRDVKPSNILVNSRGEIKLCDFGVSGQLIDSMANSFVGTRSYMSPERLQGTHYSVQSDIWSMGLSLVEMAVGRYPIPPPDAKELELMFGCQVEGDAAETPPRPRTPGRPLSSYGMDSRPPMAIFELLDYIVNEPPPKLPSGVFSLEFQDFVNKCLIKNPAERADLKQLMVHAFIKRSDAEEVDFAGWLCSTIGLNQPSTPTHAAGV
T4 sequence (P53779 whole entry): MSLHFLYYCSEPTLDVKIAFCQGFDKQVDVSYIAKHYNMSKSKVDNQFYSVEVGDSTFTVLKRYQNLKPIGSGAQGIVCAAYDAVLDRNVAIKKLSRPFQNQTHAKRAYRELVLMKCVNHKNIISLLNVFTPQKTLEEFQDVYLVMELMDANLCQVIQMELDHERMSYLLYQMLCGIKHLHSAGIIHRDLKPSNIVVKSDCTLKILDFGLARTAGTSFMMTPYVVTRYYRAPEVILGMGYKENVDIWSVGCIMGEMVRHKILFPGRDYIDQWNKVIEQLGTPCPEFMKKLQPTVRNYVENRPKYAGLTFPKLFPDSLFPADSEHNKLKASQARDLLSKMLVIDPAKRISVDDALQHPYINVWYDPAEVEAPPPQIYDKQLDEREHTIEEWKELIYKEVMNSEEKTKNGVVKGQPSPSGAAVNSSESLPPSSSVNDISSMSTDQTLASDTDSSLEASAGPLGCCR
T3 sequence (P22607 23-806, species assumed): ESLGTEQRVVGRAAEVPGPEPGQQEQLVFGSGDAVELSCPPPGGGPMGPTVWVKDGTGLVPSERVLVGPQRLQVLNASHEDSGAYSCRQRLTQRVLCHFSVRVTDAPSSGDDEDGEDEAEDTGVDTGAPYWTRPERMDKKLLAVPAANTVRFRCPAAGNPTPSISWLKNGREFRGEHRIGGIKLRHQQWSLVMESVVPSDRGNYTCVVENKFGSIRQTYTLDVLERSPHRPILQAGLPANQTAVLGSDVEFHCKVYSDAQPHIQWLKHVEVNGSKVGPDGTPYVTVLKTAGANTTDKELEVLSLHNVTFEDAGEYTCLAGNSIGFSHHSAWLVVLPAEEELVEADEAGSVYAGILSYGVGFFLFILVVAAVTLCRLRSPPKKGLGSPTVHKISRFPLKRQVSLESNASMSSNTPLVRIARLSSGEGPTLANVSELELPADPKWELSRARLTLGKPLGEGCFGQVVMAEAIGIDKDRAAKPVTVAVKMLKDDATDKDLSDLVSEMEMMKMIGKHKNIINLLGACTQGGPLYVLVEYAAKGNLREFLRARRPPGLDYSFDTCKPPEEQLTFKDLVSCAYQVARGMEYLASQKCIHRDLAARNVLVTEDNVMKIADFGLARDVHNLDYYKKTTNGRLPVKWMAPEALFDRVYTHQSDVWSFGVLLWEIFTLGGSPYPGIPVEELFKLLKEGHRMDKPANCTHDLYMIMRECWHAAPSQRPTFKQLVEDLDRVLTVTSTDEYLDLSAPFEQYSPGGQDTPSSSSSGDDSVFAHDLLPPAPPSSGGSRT
T9 sequence (P31749 whole entry, species assumed): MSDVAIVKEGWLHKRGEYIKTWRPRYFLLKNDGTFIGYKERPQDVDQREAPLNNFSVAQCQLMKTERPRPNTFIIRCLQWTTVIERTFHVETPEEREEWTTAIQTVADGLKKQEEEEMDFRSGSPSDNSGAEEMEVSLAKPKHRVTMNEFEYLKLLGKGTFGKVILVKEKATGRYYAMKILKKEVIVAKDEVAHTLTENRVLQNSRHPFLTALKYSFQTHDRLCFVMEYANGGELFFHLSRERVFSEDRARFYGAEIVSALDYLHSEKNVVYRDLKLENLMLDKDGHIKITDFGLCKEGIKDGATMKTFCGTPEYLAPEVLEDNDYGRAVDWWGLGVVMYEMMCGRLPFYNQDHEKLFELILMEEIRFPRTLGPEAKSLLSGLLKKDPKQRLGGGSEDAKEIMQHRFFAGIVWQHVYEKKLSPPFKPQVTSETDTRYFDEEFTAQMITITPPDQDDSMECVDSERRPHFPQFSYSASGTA
T5 sequence (P27361 whole entry): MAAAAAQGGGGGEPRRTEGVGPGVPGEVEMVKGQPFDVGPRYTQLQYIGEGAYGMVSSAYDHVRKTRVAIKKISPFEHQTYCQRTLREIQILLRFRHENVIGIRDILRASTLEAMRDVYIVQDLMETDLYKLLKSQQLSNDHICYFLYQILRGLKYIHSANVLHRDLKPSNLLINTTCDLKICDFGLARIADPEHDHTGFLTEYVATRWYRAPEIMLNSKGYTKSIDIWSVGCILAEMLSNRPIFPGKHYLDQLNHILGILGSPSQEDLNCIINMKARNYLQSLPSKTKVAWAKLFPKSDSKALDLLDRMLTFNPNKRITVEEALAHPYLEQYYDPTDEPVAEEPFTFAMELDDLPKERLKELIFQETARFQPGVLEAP

Consider `CN(C)CC(C)(C)CNc1nccc(-c2c(-c3ccc(F)cc3)nc3occn23)n1` [CXIX], for which the inhibition at 0.1 µM is -1% at CDK2/cyclinA (0.1 μM compound); 13% at CaMKIV (0.1 μM compound); 9% at FGFR3 (0.1 μM compound); 19% on JNK3-His (0.1 μM compound); 7% at MAPK1 (0.1 μM compound); -1% on MEK1 (0.1 μM compound). For the same compound, the inhibition at 0.1 µM on MKK6 (0.1 μM compound) is 1%; at PKA (0.1 μM compound), 1%; at PKB α (0.1 μM compound), 11%; at SAPK4 (0.1 μM compound), 3%. Besides, the inhibition at 1 µM at CDK2/cyclinA (1 μM compound) is -1%; at CaMKIV (1 μM compound) it was 7%; at FGFR3 (1 μM compound) it was -2%; on JNK3-His (1 μM compound), 56%; at MAPK1 (1 μM compound), 15%; at MEK1 (1 μM compound), 2%. Moreover, the inhibition at 1 µM was 75% at MKK6 (1 μM compound), -8% on PKA (1 μM compound), 5% on PKB α (1 μM compound) and -4% at SAPK4 (1 μM compound).
